Structures are written as SMILES.

As usually defined, the IC50 is the concentration that inhibits the measured activity by half.

For one assay, the target named is T1, mTOR (Homo sapiens, UniProt P42345).
T1 construct: ProQinase, Germany (contract testing)
Put plainly: mTOR inhibition assay (ProQinase). The class given is biochemical. The conditions noted are these: tested at ProQinase, Germany; read-out: IC50, mTOR enzyme activity. As for the experimental part:
The compounds of the present invention were tested at ProQinase, Germany.

Another assay deals with T2, ALK1 (ACVRL1) (Homo sapiens, UniProt P37023).
T2 construct: recombinant human, catalytic domain of ALK1 (ACVRL1) or ALK2 (ACVR1) kinase GST fusion proteins; GST; purchased Invitrogen, USA
T2 sequence (P37023 202-492 limits assumed): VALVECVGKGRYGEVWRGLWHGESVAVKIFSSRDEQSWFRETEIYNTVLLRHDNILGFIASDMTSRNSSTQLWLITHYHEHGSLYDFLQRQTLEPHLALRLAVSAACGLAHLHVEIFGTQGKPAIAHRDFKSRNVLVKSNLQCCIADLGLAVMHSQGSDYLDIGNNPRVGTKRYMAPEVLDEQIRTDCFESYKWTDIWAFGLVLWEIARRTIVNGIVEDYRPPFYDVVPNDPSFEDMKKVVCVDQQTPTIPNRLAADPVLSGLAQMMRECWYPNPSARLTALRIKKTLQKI
Put plainly: ALK1 inhibition assay (TR-FRET). Type of assay: biochemical. As to conditions: 20 μM ATP, read-out: IC50 for ALK-1. As for the experimental part:
(§1) Protocol for ALK1 and ALK2 Inhibition Assay
(§2) The in vitro kinase assays using recombinant human, catalytic domain of ALK1 (ACVRL1) or ALK2 (ACVR1) kinase GST fusion proteins (Invitrogen, USA) were conducted using a time-resolved fluorescence (TR-FRET) format. Kinase reactions were carried out in a 384-well plate format in a final volume of 20 μl. The standard enzyme reaction buffer consisted of 50 mM Tris HCL (pH: 7.4), 1 mM EGTA, 10 mM MgCl2, 2 mM DTT, 0.01% Tween-20, 20 nM of ALK1/ALK2 kinase enzyme (Invitrogen, USA), 50 nM of peptide substrate (DNA Topoisomerase 2 alpha (Thr 1342)U1 peptide, Perkin Elmer, USA) and 20 μM of ATP. Various concentrations of compound of Example 3a in DMSO (final concentration 2%), was added to give a final concentration of the compound ranging from 20 μM to 20 pM. [20 nM of enzyme and compound in various concentrations were pre incubated for 10 minutes at 23° C. followed by the addition of 50 nM of the peptide substrate]. Reaction was initiated with the addition of 20 μM of ATP. After incubation for 1 hour at 23° C., kinase reaction was stopped with the addition of 5 μl EDTA (final concentration of 10 mM in 20 μl). […] The IC50 values for compound of Example 3a were determined by a four-parameter sigmoidal curve fit (Sigma plot or Graph pad).
For orientation: Time-resolved FRET reads energy transfer from a long-lived donor to a nearby acceptor.

In another assay the target is T3, ALK2 (ACVR1) (Homo sapiens, UniProt Q04771).
T3 construct: recombinant human, catalytic domain of ALK1 (ACVRL1) or ALK2 (ACVR1) kinase GST fusion proteins; GST; purchased Invitrogen, USA
T3 sequence (Q04771 208-502 limits assumed): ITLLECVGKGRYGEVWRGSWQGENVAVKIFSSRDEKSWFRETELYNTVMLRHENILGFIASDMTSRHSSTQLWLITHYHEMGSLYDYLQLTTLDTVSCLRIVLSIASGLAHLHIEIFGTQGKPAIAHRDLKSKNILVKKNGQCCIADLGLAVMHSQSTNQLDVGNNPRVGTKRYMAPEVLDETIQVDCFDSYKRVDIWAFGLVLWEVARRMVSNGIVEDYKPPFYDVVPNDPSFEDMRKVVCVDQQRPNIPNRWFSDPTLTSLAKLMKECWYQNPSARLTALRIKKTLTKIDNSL
Briefly: ALK2 inhibition assay (TR-FRET). Type of assay: biochemical. As to conditions: 20 μM ATP, read-out: IC50 for ALK-2. As for the experimental part:
as §1, §2

Assay [1] concerns Human umbilical vein endothelial cells (HUVECs). Put plainly: VEGF induced tube formation assay. Type of assay: cell-based. The conditions noted are these: HUVECs on Matrigel, compound 75 nM, 18 hours; FIG. 2. As for the experimental part: Protocol for Tube Formation Assay
Cell Culture: Human umbilical vein endothelial cells (HUVECs) (ATCC) used in passages 2-7. The cells were grown in endothelial medium (Promocell, Germany) supplemented with 20% fetal bovine serum (FBS), 100 units/mL penicillin, 100 μg/mL streptomycin, 3 ng/mL basic fibroblast growth factor, and 5 units/mL heparin at 37° C. under a humidified 95% (v/v) mixture of air and CO2.
Tube Formation Assay: 250 μl of growth factor-reduced Matrigel (BD Biosciences) was pipetted into a 24 well tissue culture plate and polymerized for 30 minutes at 37° C. HUVECs incubated in endothelial media containing 1% FBS for 6 hours were harvested after trypsin treatment and suspended in endothelial media containing 1% FBS. Compounds of present invention (75 nM) were added to the cells for 30 minutes at RT before seeding and plated onto the layer of Matrigel at a density of 2×10^4 cells/well, and followed by the addition of 2 mL of 40 ng/mL VEGF. After 18 hours, the cultures were photographed.
Results: When HUVECs were placed on growth factor-reduced Matrigel in the presence of VEGF, VEGF led to the formation of elongated and robust tube-like structures, which were organized by much larger number of cells compared with the control.

For assay [2], the system named is human PANC-1 xenograft tumors. Put plainly: Pancreatic cancer xenograft model (tumor growth inhibition in vivo). Also on record: species or system mouse. As to conditions: SCID mice, 3 mpk once daily p.o., 14 days; FIG. 3B. The procedure: Animals: Severe combined immunodeficient (SCID) mice (Male and Female) 6 to 8 weeks old, were used. Animals were housed in suitable cages under specified pathogen-free conditions in rooms maintained at 23° C. and 50% humidity, with a 12-hour light/12-hour dark cycle. The mice were quarantined during the acclimatization period of at least a week.
Pancreatic Cancer xenograft model: The human pancreatic carcinoma cells, (PANC-1) (ATCC) were grown in Eagle's Minimum Essential Medium (SAFC, US) supplemented with 10% (v/v) fetal bovine serum. The cells were incubated at 37° C. in a humidified atmosphere containing 5% CO2. […]
Tumor-bearing mice were randomized in two groups when the mean tumor weight was ˜100 mg. […] Twice a week, each xenograft was measured in two dimensions (a=length; b=width) with a caliper. Tumor volume (V) was determined by the following equation:
Tumor volumes were converted into tumor weights assuming a tumor density of 1 mm^3=1 mg. Tumor growth inhibition (TGI) for each group was calculated according to the following formula: […]
Wherein, T and T0 are the mean tumor volumes on a specific experimental day and on day 1 of treatment, respectively, for the experimental groups. […] Animals in each group were observed every day for signs of health deterioration and animal weight was recorded daily. […]

`CS(=O)(=O)O.Cn1c(=O)n(-c2ccc(C(C)(C)C#N)nc2)c2c3cc(-c4cnc(N)c(C(F)(F)F)c4)ccc3ncc21` [Example 3a, 8-(6-Amino-5-(trifluoromethyl)pyridin-3-yl)-1-(6-(2-cyanopropan-2-yl)pyridin-3-yl)-3-methyl-2-oxo-2,3-dihydro-1H-imidazo[4,5-c]quinolin-5-ium methanesulfonate]: the IC50 stood at 4.4 nM at mTOR, 42 nM on ALK1 (ACVRL1) and 47 nM at ALK2 (ACVR1). Moreover, in assay [1], the “VEGF (40 ng/mL) induced tube formation” value was “effectively abrogated the width and the length of endothelial tubes induced by VEGF”. The “Growth of pancreatic tumors, PANC-1 xenograft” value in assay [2] was “effectively inhibited the growth of pancreatic tumors”.
